Laboratory results published in PubChem BioAssay AID1963973 (Molecular Pharmacology Branch, DTP, NCI, 2024).
Values joined by “and” are separate entries in the source; they are usually repeats but may differ in a detail not shown here. Equal values may be shown once.

Tested on: 883617-216-R-J1-PDC tumor spheroids, viability
Experiment: Anticancer human tumor 883617-216-R-J1-PDC patient-derived bladder carcinoma cell line growth inhibition [PI3K]
Details: spheroids with HUVEC and MSC; for viability, T/C: stronger effect = lower value
In short: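 High-throughput combination screen: PI3K inhibitors crossed with targeted small molecules on complex spheroids of tumor cells, HUVEC and MSCs at 37 degrees C, 5% CO2. Top concentration was at or near clinical Cmax (otherwise 10 microM), with half-log decrements.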

[1] = curve of first compound, second compound 0.0316 µM
[2] = curve of first compound, second compound 0.1 µM
[3] = curve of first compound, second compound 0.316 µM
[4] = curve of first compound, second compound 1 µM
[5] = second compound 0.0316 µM, first compound 0.0316 µM
[6] = second compound 0.0316 µM, first compound 0.1 µM
[7] = second compound 0.0316 µM, first compound 0.316 µM
[8] = second compound 0.0316 µM, first compound 1 µM
[9] = second compound 0.0316 µM, first compound 3.16 µM
[10] = second compound 0.0316 µM, first compound 10 µM
[11] = second compound 0.1 µM, first compound 0.0316 µM
[12] = second compound 0.1 µM, first compound 0.1 µM
[13] = second compound 0.1 µM, first compound 0.316 µM
[14] = second compound 0.1 µM, first compound 1 µM
[15] = second compound 0.1 µM, first compound 3.16 µM
[16] = second compound 0.1 µM, first compound 10 µM
[17] = second compound 0.316 µM, first compound 0.0316 µM
[18] = second compound 0.316 µM, first compound 0.1 µM
[19] = second compound 0.316 µM, first compound 0.316 µM
[20] = second compound 0.316 µM, first compound 1 µM
[21] = second compound 0.316 µM, first compound 3.16 µM
[22] = second compound 0.316 µM, first compound 10 µM
[23] = second compound 1 µM, first compound 0.0316 µM
[24] = second compound 1 µM, first compound 0.1 µM
[25] = second compound 1 µM, first compound 0.316 µM
[26] = second compound 1 µM, first compound 1 µM
[27] = second compound 1 µM, first compound 3.16 µM
[28] = second compound 1 µM, first compound 10 µM
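Also: spheroids exposed to agents for 7 days before the viability read.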

C=CC(=O)N1CCN(c2nc(=O)n(-c3c(C)ccnc3C(C)C)c3nc(-c4c(O)cccc4F)c(F)cc23)C(C)C1 (stereo not drawn) + Cc1nc(NC(=O)N2CCCC2C(N)=O)sc1-c1ccnc(C(C)(C)C(F)(F)F)c1
IC50 [1]: < 31.6 nM
IC50 [2]: < 31.6 nM
IC50 [3]: < 31.6 nM
IC50 [4]: < 31.6 nM
IC50 (curve of first compound, second compound 3.16 µM): < 31.6 nM
IC50 (curve of first compound, second compound 10 µM): < 31.6 nM
viability, T/C [5]: 56.5%
viability, T/C [6]: 45.7%
viability, T/C [7]: 44.1%
viability, T/C [8]: 51.8%
viability, T/C [9]: 70.4%
viability, T/C [10]: 60.9%
viability, T/C [11]: 37.3%
viability, T/C [12]: 35.9%
viability, T/C [13]: 40.3%
viability, T/C [14]: 34.9%
viability, T/C [15]: 52.9%
viability, T/C [16]: 46.2%
viability, T/C [17]: 32.5%
viability, T/C [18]: 22.4%
viability, T/C [19]: 25.6%
viability, T/C [20]: 27.5%
viability, T/C [21]: 34.6%
viability, T/C [22]: 35%
viability, T/C [23]: 14.7%
viability, T/C [24]: 12.8%
viability, T/C [25]: 13.9%
viability, T/C [26]: 17.1%
viability, T/C [27]: 26.2%
viability, T/C [28]: 20.5%
viability, T/C (second compound 3.16 µM, first compound 0.0316 µM): 10.3%
viability, T/C (second compound 3.16 µM, first compound 0.1 µM): 6.71%
viability, T/C (second compound 3.16 µM, first compound 0.316 µM): 6.68%
viability, T/C (second compound 3.16 µM, first compound 1 µM): 9.84%
viability, T/C (second compound 3.16 µM, first compound 3.16 µM): 12.8%
viability, T/C (second compound 3.16 µM, first compound 10 µM): 11.2%
viability, T/C (second compound 10 µM, first compound 0.0316 µM): 3.61%
viability, T/C (second compound 10 µM, first compound 0.1 µM): 2.75%
viability, T/C (second compound 10 µM, first compound 0.316 µM): 3.18%
viability, T/C (second compound 10 µM, first compound 1 µM): 4.91%
viability, T/C (second compound 10 µM, first compound 3.16 µM): 7.96%
viability, T/C (second compound 10 µM, first compound 10 µM): 6.43%

CC1(C)CCC(CN2CCN(c3ccc(C(=O)NS(=O)(=O)c4ccc(NCC5CCOCC5)c([N+](=O)[O-])c4)c(Oc4cnc5[nH]ccc5c4)c3)CC2)=C(c2ccc(Cl)cc2)C1 + CC(Nc1ccc2c(c1)OCCn1cc(N3C(=O)OCC3C(F)F)nc1-2)C(N)=O
IC50 (curve of first compound, second compound 0.00316 µM): 5330 nM
IC50 (curve of first compound, second compound 0.01 µM): 4580 nM
IC50 [1]: 3770 nM
IC50 [2]: < 31.6 nM
IC50 [3]: < 31.6 nM
IC50 [4]: < 31.6 nM
viability, T/C (second compound 0.00316 µM, first compound 0.0316 µM): 83.5%
viability, T/C (second compound 0.00316 µM, first compound 0.1 µM): 61.8%
viability, T/C (second compound 0.00316 µM, first compound 0.316 µM): 97.3%
viability, T/C (second compound 0.00316 µM, first compound 1 µM): 107%
viability, T/C (second compound 0.00316 µM, first compound 3.16 µM): 90.2%
viability, T/C (second compound 0.00316 µM, first compound 10 µM): 4.2%
viability, T/C (second compound 0.01 µM, first compound 0.0316 µM): 86.6%
viability, T/C (second compound 0.01 µM, first compound 0.1 µM): 74.8%
viability, T/C (second compound 0.01 µM, first compound 0.316 µM): 87.8%
viability, T/C (second compound 0.01 µM, first compound 1 µM): 82.8%
viability, T/C (second compound 0.01 µM, first compound 3.16 µM): 71.8%
viability, T/C (second compound 0.01 µM, first compound 10 µM): 3.91%
viability, T/C [5]: 66.7%
viability, T/C [6]: 51.6%
viability, T/C [7]: 65.5%
viability, T/C [8]: 65.4%
viability, T/C [9]: 57.8%
viability, T/C [10]: 5.24%
viability, T/C [11]: 29.4%
viability, T/C [12]: 36.4%
viability, T/C [13]: 41.5%
viability, T/C [14]: 45.8%
viability, T/C [15]: 47.5%
viability, T/C [16]: 2.96%
viability, T/C [17]: 21.2%
viability, T/C [18]: 22.1%
viability, T/C [19]: 22.1%
viability, T/C [20]: 25.4%
viability, T/C [21]: 26.4%
viability, T/C [22]: 2.64%
viability, T/C [23]: 17.2%
viability, T/C [24]: 13%
viability, T/C [25]: 15.3%
viability, T/C [26]: 14.3%
viability, T/C [27]: 21.6%
viability, T/C [28]: 1.47%

Cn1cnc2c(F)c(Nc3ccc(Br)cc3Cl)c(C(=O)NOCCO)cc21
viability, T/C (compound 0.00949 µM): 73.6% [middle of 4 runs]
viability, T/C (compound 0.03 µM): 54.3% [middle of 4 runs]
viability, T/C (compound 0.0949 µM): 43.7% [middle of 4 runs]
viability, T/C (compound 0.3 µM): 32.2% [middle of 4 runs]
viability, T/C (compound 0.949 µM): 34.6% [middle of 4 runs]
viability, T/C (compound 3 µM): 20.2% [middle of 4 runs]
IC50 (curve of compound): 52.5 nM [middle of 4 runs]

CC(=O)c1c(C)c2cnc(Nc3ccc(N4CCNCC4)cn3)nc2n(C2CCCC2)c1=O
viability, T/C (compound 0.000316 µM): 109% [middle of 4 runs]
viability, T/C (compound 0.001 µM): 91.3% [middle of 4 runs]
viability, T/C (compound 0.00316 µM): 76.6% [middle of 4 runs]
viability, T/C (compound 0.01 µM): 87.7% [middle of 4 runs]
viability, T/C (compound 0.0316 µM): 71.2% [middle of 4 runs]
viability, T/C (compound 0.1 µM): 47.9% [middle of 4 runs]
IC50 (curve of compound): 98.5 nM and > 100 nM and 79.7 nM
